Source: patent US6350917B1, “α-crystal of cyclopentenone” (Takara Shuzo Co., Ltd., priority 1997, dated 2002)

Assay: Thermostability: quantitative determination of the cyclopentenone (UV absorbance near 215 nm) initially and after standing at 40° C. for six days
Assay type: physicochemical
Details: for Amount of the Cyclopentenone (%) After Standing at 40° C. for six days / Amount of the Cyclopentenone (%) At Initial Stage: ratio of the cyclopentenone in the sample; for Amount of the Cyclopentenone (%) At Initial Stage: the rest being water and impurities
Description: In order to compare the thermostability of the freeze-dried cyclopentenone obtained in Referential Example 1 and that of the α-type crystals obtained in Example 1, quantitative determination was conducted for the cyclopentenone on the initial stage and after allowing to stand at 40° C. for six days by means of the following quantitative determination method.
Quantitative Determination Method: A sample (0.1 g) of the cyclopentenone is dissolved in 100 ml of water and 2 ml of the resulting solution are diluted to an extent of 50-fold. Absorbance (A) of this solution at the wave length of maximum absorption near the wave length of 215 nm is measured. Amount of the cyclopentenone (mg/ml) is calculated by the following formula.
Amount of the Cyclopentenone (mg/ml)=(A÷773.4)×50000

Row | Amount of the Cyclopentenone (%) After Standing at 40° C. for six days | Amount of the Cyclopentenone (%) At Initial Stage | Compound | Thermostability compared with the freeze-dried product (40° C. for six days, in words)
1 | 28.2% | 59.4% | O=C1C=C[C@@H](O)[C@@H]1O (relative stereo) [Freeze-Dried Product, trans-4,5-dihydroxy-2-cyclopenten-1-one, reference compound] | –
2 | 95.2% | 96.4% | O=C1C=C[C@@H](O)[C@@H]1O (relative stereo) [α-Type Crystals, trans-4,5-dihydroxy-2-cyclopenten-1-one] | significantly improved thermostability as compared with the freeze-dried product
